The numbers were not newly measured in publication PMC2742322 (Bioorganic & medicinal chemistry letters, 2008), which cites them from elsewhere.

This data set has as its target μ-opioid receptor (Cavia porcellus, UniProt A0ACM8Q262). Conditions: read-out: IC50^μ (GPI); functional bioactivity.

μ-opioid receptor, sequence (A0ACM8Q262 1-400): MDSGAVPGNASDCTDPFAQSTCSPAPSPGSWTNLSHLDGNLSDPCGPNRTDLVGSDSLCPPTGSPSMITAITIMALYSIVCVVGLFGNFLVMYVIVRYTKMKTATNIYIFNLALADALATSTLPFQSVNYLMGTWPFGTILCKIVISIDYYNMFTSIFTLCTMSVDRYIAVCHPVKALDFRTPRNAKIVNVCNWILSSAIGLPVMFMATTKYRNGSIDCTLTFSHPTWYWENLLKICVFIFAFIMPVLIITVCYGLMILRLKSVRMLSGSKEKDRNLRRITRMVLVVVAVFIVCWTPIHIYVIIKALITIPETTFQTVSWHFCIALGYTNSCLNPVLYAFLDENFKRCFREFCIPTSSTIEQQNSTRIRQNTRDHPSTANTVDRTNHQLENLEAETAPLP

Turning to Tyr^1-Pro^2-Trp^3-Phe^4-NH2 [EM-1], the IC50 (in general, the midpoint of a concentration-inhibition curve) is 9.7 ± 2.21 nM.
